These results are taken from US5747521A (priority 1992, dated 1998).

The structures appear in SMILES notation. Where two headings read alike, the source gives them in different places.

The test system of data set [1] is carrageenan induced hind-paw edema. The data set is described as follows: Anti-inflammatory activity test (carrageenan induced hind-paw edema method, Winter). It is filed as in vivo, male rats. To be noted: for A rate of inhibition: 100 mg/kg p.o., 1% carrageenan one hour after dosing, edema measured 3 hours and 5 hours thereafter, significance (p.v.) 0.01; for edema inhibition effect / anti-inflammatory action: conclusion in words from Table 2. How it is done:
The volume of legs was measured before a solution of a drug was administered to a group of 8 mature male rats (weight 170±20 g) and 0.1 ml /rat of 1% carrageenan physiological saline solution was injected subcutaneously into the sole of hind of leg of rats one hour after the oral administration and edema thereby caused was measured 3 hours and 5 hours thereafter. In this way, a rate of edema formation and a rate of inhibition were calculated.

Data set [2] is described as follows: in vivo. To be noted: rat, po. On the set-up: species or system male SD-rats. How it is done:
A solution of a drug was administered through the mouths of a group of 8 mature male SD-rats (weight 130±20 g) performing a fast for 24 hours. […] Capacity which causes 50% bleeding (UD50) was calculated according to the Ritchfield and Wilcoxon method (J. Pahrmacol., 69, 99, 1949) with bleeding more than 1 mm in diameter as positivity.

A short description of data set [3]: in vivo. As to conditions: mouse.
For data set [4], the system named is number of stretchings (anti-writhing). The data set is described as follows: Analgesic activity test (anti-writhing method by Whittle). As to conditions: for ED50: Mus musculus, 1 h, read-out: ED50 Oral administration; for analgesic activity / analgesic action: conclusion in words from Table 3. It is filed as in vivo, male ICR-mice. As for the experimental part: After the lapse of 60 minutes, the number of stretchings in the course of 10 minutes was measured as an index to a algesic sense.
(An intraperitoneal irritant provokes the stretching counted in writhing tests.)

The mark [5] stands for this setting: ip, read-out: LD50 Abdominal administration.
The mark [6] stands for this setting: oral, single dose, fasted mice, mortality up to 72 hours, read-out: LD50 Oral administration.
Where [7] appears, read: oral, stretchings counted in 10 minutes, 60 minutes after dosing.

Regarding `COc1ccc2c(c1)c(CC(=O)OCC1CCCCO1)c(C)n2C(=O)C=Cc1ccccc1` (stereo not shown) [Compound 3, 0-(2-tetrahydropyranilmethyl)-N-cinnamoyl-5-methoxy-2methyl-3-indoleacetate], the “A rate of inhibition” value in data set [1] is reported as 43%. In data set [1], the “edema inhibition effect / anti-inflammatory action” value is “significant anti-inflammatory action”. Besides, in data set [2], the TD50 at 4 h stood at 230 mg/kg. Moreover, the values for the LD50 at 72 h in data set [3] (setting [5]) and in data set [3] (setting [6]) were 1150 mg/kg and 6000 mg/kg, respectively. Also, in data set [4] (setting [7]), the ED50 is 95 mg/kg. The “analgesic activity / analgesic action” value in data set [4] is on record as “significant analgesic action”.

Turning to `COc1ccc2c(c1)c(CC(=O)OC(C)C(C)O)c(C)n2C(=O)C=Cc1ccccc1` (stereo not shown) [Compound 2, 0-(3-hydroxy-2-buthanyl)-cinnamoyl-5-methoxy-2-methyl-3-indoleacetate], the “A rate of inhibition” value in data set [1] is on record as 52%. Besides, in data set [1], the “edema inhibition effect / anti-inflammatory action” value is listed as “almost similar to the widely known cinmetacin”. In data set [2], this molecule showed a TD50 at 4 h of 175 mg/kg. The figures for the LD50 at 72 h in data set [3] (setting [5]) and in data set [3] (setting [6]) were 570 mg/kg and 4200 mg/kg, respectively. In data set [4] (setting [7]), the ED50 is 31 mg/kg. Moreover, in data set [4], the “analgesic activity / analgesic action” value is “analgesic activity equal to cinmetacin”.

Regarding `CC1=C(CC(=O)O)c2cc(F)ccc2/C1=C\c1ccc([S+](C)[O-])cc1` (stereo not shown) [Sulindac, reference compound], the TD50 at 4 h in data set [2] amounted to 14 mg/kg. For the same molecule, the LD50 at 72 h in data set [3] (ip, into the abdominal cavity, single dose, fasted mice, mortality up to 72 hours, read-out: LD50 Abdominal administration) is 235 mg/kg; in data set [3] (setting [6]) it was 980 mg/kg. Moreover, the ED50 in data set [4] (po) amounted to 60 mg/kg.

On to `COc1ccc2c(c1)c(CC(=O)OCC=CCO)c(C)n2C(=O)C=Cc1ccccc1` [Compound 1, 0-(4-hydroxy-2-butene)-N-cinnamoyl-5-methoxy-2-methyl-3-indoleacetate], for which, in data set [1], the “A rate of inhibition” value is 57% and the “edema inhibition effect / anti-inflammatory action” value is “almost similar to the widely known cinmetacin”. The TD50 at 4 h in data set [2] turned out to be 100 mg/kg. Further, in data set [3] (setting [5]), the LD50 at 72 h is 520 mg/kg. Moreover, the LD50 at 72 h in data set [3] (setting [6]) amounted to 2000 mg/kg. In addition, in data set [4] (setting [7]), the ED50 stood at 70 mg/kg. The “analgesic activity / analgesic action” value in data set [4] is given as “significant analgesic action”.

Take `COc1ccc2c(c1)c(CC(=O)O)c(C)n2C(=O)C=Cc1ccccc1` [Cinmetacin, N-cinnamoyl-2-methyl-5-methoxy-3-indoleacetic acid, reference compound]: the “A rate of inhibition” value in data set [1] turned out to be 65%. In data set [2], this molecule gave a TD50 at 4 h of 18 mg/kg. Moreover, the ED50 in data set [4] (po) is 36 mg/kg.
